Drawing on ChEMBL document CHEMBL1201862, “PubChem BioAssay data set” (2004), this text covers AC50, EC50 and IC50 for three molecules.

The source made the active and inactive calls.

The target of experiment [1] is T1, Replicative DNA helicase DnaB (Mycobacterium tuberculosis, UniProt P9WMR3).
T1 sequence (P9WMR3 whole entry): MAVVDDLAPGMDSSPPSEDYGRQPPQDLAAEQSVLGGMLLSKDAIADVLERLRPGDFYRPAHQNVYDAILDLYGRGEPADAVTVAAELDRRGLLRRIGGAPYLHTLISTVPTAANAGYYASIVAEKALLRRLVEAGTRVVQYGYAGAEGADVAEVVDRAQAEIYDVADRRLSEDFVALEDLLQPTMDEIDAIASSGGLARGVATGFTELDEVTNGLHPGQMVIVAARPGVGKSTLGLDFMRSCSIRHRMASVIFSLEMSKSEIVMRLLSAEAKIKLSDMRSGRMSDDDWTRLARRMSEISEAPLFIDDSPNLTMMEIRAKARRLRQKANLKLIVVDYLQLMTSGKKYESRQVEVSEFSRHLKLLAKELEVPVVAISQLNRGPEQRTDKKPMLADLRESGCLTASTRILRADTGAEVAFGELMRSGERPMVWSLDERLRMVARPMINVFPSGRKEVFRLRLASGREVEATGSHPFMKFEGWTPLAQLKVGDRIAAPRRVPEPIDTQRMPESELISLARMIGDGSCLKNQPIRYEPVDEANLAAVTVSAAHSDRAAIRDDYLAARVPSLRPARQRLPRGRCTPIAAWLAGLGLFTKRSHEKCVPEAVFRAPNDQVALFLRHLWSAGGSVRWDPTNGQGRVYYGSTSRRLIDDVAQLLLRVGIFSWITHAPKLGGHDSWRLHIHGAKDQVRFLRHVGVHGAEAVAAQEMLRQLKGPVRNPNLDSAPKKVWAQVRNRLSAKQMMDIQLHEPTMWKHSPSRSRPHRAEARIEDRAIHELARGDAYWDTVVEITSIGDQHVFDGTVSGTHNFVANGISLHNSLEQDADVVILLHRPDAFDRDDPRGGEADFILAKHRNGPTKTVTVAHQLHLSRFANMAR
The experiment in a line: DnaB intein splicing inhibitors, dose response, biochemical, cell-free fluorescence (AID 449749). It counts as functional.

For experiment [2], the target named is T2, Protein RecA (Mycobacterium tuberculosis, UniProt P9WHJ3).
T2 sequence (P9WHJ3 whole entry): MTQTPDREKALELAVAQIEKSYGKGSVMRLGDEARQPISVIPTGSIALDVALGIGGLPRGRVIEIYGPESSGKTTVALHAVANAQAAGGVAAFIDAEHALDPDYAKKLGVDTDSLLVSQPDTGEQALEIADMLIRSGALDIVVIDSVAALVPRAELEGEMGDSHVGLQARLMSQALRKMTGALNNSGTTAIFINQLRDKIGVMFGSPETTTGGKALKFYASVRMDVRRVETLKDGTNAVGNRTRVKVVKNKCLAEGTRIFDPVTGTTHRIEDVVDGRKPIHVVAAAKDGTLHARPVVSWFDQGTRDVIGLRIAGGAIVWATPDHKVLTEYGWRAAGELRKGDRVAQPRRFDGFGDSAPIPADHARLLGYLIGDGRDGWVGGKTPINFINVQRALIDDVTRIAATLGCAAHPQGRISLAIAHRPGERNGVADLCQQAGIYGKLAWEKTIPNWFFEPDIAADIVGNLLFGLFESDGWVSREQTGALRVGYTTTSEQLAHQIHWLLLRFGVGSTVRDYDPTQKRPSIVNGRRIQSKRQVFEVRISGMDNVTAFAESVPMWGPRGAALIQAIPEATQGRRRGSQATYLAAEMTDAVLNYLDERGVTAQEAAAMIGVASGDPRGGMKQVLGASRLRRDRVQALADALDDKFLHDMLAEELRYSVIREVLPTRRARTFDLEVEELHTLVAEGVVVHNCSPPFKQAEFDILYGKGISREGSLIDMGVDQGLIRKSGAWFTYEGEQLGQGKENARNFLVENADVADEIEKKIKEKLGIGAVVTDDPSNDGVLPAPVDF
The experiment in a line: Fluorescence Cell-Free Homogeneous Dose Retest to Identify Inhibitors of RecA-Intein Splicing Activity. [Related pubchem assays (depositor defined):AID2097, AID2223, AID489010, AID492950]. It counts as functional.

Experiment [3] deals with T3, 1-phosphatidylinositol 4,5-bisphosphate phosphodiesterase beta-3 (Homo sapiens, UniProt Q01970).
T3 sequence (Q01970 whole entry): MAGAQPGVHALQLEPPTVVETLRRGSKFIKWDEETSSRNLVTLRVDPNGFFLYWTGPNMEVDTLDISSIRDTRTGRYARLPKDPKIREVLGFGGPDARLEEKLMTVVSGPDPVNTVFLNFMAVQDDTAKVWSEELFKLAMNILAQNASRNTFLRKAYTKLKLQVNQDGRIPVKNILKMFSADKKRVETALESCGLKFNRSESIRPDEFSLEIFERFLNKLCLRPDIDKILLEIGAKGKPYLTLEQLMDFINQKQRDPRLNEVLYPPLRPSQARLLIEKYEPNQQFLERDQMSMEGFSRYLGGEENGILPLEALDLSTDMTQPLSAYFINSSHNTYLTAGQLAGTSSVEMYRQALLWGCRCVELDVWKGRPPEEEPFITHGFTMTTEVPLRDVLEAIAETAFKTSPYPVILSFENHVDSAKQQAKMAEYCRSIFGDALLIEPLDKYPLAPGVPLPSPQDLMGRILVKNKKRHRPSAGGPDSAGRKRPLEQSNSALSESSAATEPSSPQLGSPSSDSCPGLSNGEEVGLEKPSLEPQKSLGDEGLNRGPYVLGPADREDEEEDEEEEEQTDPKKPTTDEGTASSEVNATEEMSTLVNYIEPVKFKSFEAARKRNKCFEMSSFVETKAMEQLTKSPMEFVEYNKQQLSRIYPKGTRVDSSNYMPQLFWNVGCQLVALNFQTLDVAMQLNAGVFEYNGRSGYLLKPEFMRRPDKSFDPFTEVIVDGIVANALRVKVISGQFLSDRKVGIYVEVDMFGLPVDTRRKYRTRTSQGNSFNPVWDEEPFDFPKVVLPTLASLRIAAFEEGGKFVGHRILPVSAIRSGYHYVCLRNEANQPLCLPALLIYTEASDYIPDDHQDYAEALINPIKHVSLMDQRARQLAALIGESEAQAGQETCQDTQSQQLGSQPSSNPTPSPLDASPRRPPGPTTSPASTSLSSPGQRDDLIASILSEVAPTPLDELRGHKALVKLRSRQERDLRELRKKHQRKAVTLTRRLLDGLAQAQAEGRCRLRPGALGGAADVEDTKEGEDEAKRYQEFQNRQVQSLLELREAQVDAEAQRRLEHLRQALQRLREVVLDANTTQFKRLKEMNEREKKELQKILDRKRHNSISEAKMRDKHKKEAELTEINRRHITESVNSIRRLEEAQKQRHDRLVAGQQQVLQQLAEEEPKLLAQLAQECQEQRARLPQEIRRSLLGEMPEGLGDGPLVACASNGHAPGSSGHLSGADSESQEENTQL
The experiment in a line: Fluorescence-based biochemical high throughput dose response assay to identify inhibitors of phospholipase C isozymes (PLC-B3).

In general, AC50 refers to the concentration giving half of the maximal activity seen. Usually EC50 stands for the concentration giving half of the maximal effect. In the case of `Cc1cc(C)c(S(=O)(=O)Nc2cc(SCC(=O)O)c(O)c3ccccc23)cc1C`, the AC50 in experiment [1] is 1100 nM (active). In addition, in experiment [2], the EC50 is 277 nM (active).
The term IC50 denotes the concentration that gives 50% inhibition. `O=C(/C=C/c1ccco1)NC(=S)Nc1cccc(C(=O)O)c1`: the IC50 in experiment [3] was > 122000 nM (inactive).
With `CNCc1ccccc1Sc1ccc(O)c(O)c1`, in experiment [1], the AC50 was > 120000 nM (inactive). The EC50 in experiment [2] was 2570 nM (active).
